Measured values reported in US11613536B2, “Heterocyclic compounds as immunomodulators” (Incyte Corporation, priority 2016, dated 2023).

Target: PD-1/PD-L1 protein/protein interaction (Homo sapiens (Human), UniProt Q9NZQ7)
Test: PD-1/PD-L1 Homogeneous Time-Resolved Fluorescence (HTRF) Binding Assay
Conditions: recombinant human PD-L1 (19-238) His-tag 10 nM, human PD-1 (25-167) Fc tag 3 nM, 25° C., PBS pH 7.4
Method: The assays were conducted in a standard black 384-well polystyrene plate with a final volume of 20 μL. Inhibitors were first serially diluted in DMSO and then added to the plate wells before the addition of other reaction components. The final concentration of DMSO in the assay was 1%. The assays were carried out at 25° C. in the PBS buffer (pH 7.4) with 0.05% Tween-20 and 0.1% BSA. Recombinant human PD-L1 protein (19-238) with a His-tag at the C-terminus was purchased from AcroBiosystems (PD1-H5229). Recombinant human PD-1 protein (25-167) with Fc tag at the C-terminus was also purchased from AcroBiosystems (PD1-H5257). PD-L1 and PD-1 proteins were diluted in the assay buffer and 10 μL was added to the plate well. Plates were centrifuged and proteins were preincubated with inhibitors for 40 minutes. The incubation was followed by the addition of 10 μL of HTRF detection buffer supplemented with Europium cryptate-labeled anti-human IgG (PerkinElmer-AD0212) specific for Fc and anti-His antibody conjugated to SureLight®-Allophycocyanin (APC, PerkinElmer-AD0059H). After centrifugation, the plate was incubated at 25° C. for 60 min. before reading on a PHERAstar FS plate reader (665 nm/620 nm ratio). Final concentrations in the assay were—3 nM PD1, 10 nM PD-L1, 1 nM europium anti-human IgG and 20 nM anti-His-Allophycocyanin. IC50 determination was performed by fitting the curve of percent control activity versus the log of the inhibitor concentration using the GraphPad Prism 5.0 software.

Chain of PD-1/PD-L1 protein/protein interaction (Q9NZQ7 19-238): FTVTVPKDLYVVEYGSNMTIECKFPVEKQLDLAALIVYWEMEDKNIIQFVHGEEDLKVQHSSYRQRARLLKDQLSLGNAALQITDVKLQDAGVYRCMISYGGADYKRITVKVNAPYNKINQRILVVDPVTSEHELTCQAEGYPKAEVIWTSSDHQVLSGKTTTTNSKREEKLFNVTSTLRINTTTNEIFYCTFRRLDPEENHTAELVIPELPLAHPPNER

Row | Compound | IC50 [nM]
1 | Cc1c(NC(=O)c2ncc(CN3CCCC[C@H]3C(=O)O)n2C)cccc1-c1ccccc1 [Example 4, (2S)-1-[(1-methyl-2-{[(2-methylbiphenyl-3-yl)amino]carbonyl}-1H-imidazol-5-yl)methyl]piperidine-2-carboxylic acid] | 100 to 500
2 | Cn1nc(C(=O)Nc2cccc(-c3cccc4c3cnn4C)c2C#N)cc1CNCCO [Example 13, N-[2-cyano-3-(1-methyl-1H-indazol-4-yl)phenyl]-5-{[(2-hydroxyethyl)amino]methyl}-1-methyl-1H-pyrazole-3-carboxamide] | ≤ 100
3 | Cc1c(NC(=O)c2nc(Cl)c(CNCCO)s2)cccc1-c1ccccc1 [Example 8, 4-chloro-5-{[(2-hydroxyethyl)amino]methyl}-N-(2-methylbiphenyl-3-yl)-1,3-thiazole-2-carboxamide] | ≤ 100
4 | Cc1c(NC(=O)c2cc(CNCCO)n(C)n2)cccc1-c1ccccc1 [Example 7, 5-{[(2-hydroxyethyl)amino]methyl}-1-methyl-N-(2-methylbiphenyl-3-yl)-1H-pyrazole-3-carboxamide] | ≤ 100
5 | Cc1c(COc2cc(OCc3cncc(C#N)c3)c(CN3CCCC[C@H]3C(=O)O)cc2Cl)cccc1-c1cccc(NC(=O)c2ncc(CN3CC[C@@H](O)C3)s2)c1C [Example 18, (S)-1-(5-chloro-2-((5-cyanopyridin-3-yl)methoxy)-4-((3′-(5-(((R)-3-hydroxypyrrolidin-1-yl)methyl)thiazole-2-carboxamido)-2,2′-dimethyl-[1,1′-biphenyl]-3-yl)methoxy)benzyl)piperidine-2-carboxylic acid] | ≤ 100
6 | Cn1nc(C(=O)Nc2cccc(-c3ccc4c(c3)OCCO4)c2C#N)cc1CNCCO [Example 10, N-[2-cyano-3-(2,3-dihydro-1,4-benzodioxin-6-yl)phenyl]-5-{[1(2-hydroxyethyl)amino]methyl}-1-methyl-1H-pyrazole-3-carboxamide] | ≤ 100
7 | COc1cccc(-c2cccc(NC(=O)c3ncc(CNCCO)n3C)c2C#N)c1F [Example 15, N-(2-cyano-2′-fluoro-3′-methoxybiphenyl-3-yl)-5-{[(2-hydroxyethyl)amino]methyl}-1-methyl-1H-imidazole-2-carboxamide] | ≤ 100
8 | Cn1c(CNCCO)cnc1C(=O)Nc1cccc(-c2ccc3c(c2)OCCO3)c1C#N [Example 14, N-[2-cyano-3-(2,3-dihydro-1,4-benzodioxin-6-yl)phenyl]-5-{[1(2-hydroxyethyl)amino]methyl}-1-methyl-1H-imidazole-2-carboxamide] | ≤ 100
9 | COc1cccc(-c2cccc(NC(=O)c3cc(CNCCO)n(C)n3)c2C#N)c1F [Example 12, N-(2-cyano-2′-fluoro-3′-methoxybiphenyl-3-yl)-5-{[(2-hydroxyethyl)amino]methyl}-1-methyl-1H-pyrazole-3-carboxamide] | ≤ 100
10 | Cc1c(NC(=O)c2cc(CN3CC[C@@H](O)C3)n(C)n2)cccc1-c1cccc(NC(=O)c2ncc(CN3CC[C@@H](O)C3)s2)c1C [Example 19, 5-(((R)-3-hydroxypyrrolidin-1-yl)methyl)-N-(3′-(5-(((R)-3-hydroxypyrrolidin-1-yl)methyl)-1-methyl-1H-pyrazole-3-carboxamido)-2,2′-dimethyl-[1,1′-biphenyl]-3-yl)thiazole-2-carboxamide] | ≤ 100
11 | Cc1c(NC(=O)c2ncc(CNCCO)n2C)cccc1-c1ccccc1 [Example 5, 5-{[(2-hydroxyethyl)amino]methyl}-1-methyl-N-(2-methylbiphenyl-3-yl)-1H-imidazole-2-carboxamide] | ≤ 100
12 | Cn1nc(C(=O)Nc2cccc(-c3ccccc3F)c2C#N)cc1CNCCO [Example 11, N-(2-cyano-2′-fluorobiphenyl-3-yl)-5-{[(2-hydroxyethyl)amino]methyl}-1-methyl-1H-pyrazole-3-carboxamide] | ≤ 100
13 | Cc1nc(C(=O)Nc2cccc(-c3ccccc3)c2C)sc1CNCCO [Example 9, 5-{[(2-hydroxyethyl)amino]methyl}-4-methyl-N-(2-methylbiphenyl-3-yl)-1,3-thiazole-2-carboxamide] | ≤ 100
14 | Cc1c(NC(=O)c2ncc(CNCCO)s2)cccc1-c1ccccc1 [Example 2, 5-{[(2-hydroxyethyl)amino]methyl}-N-(2-methylbiphenyl-3-yl)-1,3-thiazole-2-carboxamide] | ≤ 100
15 | Cc1c(NC(=O)c2ncc(CN3CCCC[C@H]3C(=O)O)s2)cccc1-c1ccccc1 [Example 1, (2S)-1-[(2-{[(2-methylbiphenyl-3-yl)amino]carbonyl}-1,3-thiazol-5-yl)methyl]piperidine-2-carboxylic acid] | ≤ 100
16 | Cc1c(NC(=O)c2cc(CN3CCCC[C@H]3C(=O)O)n(C)n2)cccc1-c1ccccc1 [Example 6, (2S)-1-[(1-methyl-3-{[(2-methylbiphenyl-3-yl)amino]carbonyl}-1H-pyrazol-5-yl)methyl]piperidine-2-carboxylic acid] | ≤ 100
17 | Cc1c(COc2cc(OCc3cncc(C#N)c3)c(CN3CCCC[C@H]3C(=O)O)cc2Cl)cccc1-c1cccc(NC(=O)c2ncc(CNCCO)s2)c1C [Example 17, (S)-1-(5-chloro-2-((5-cyanopyridin-3-yl)methoxy)-4-((3′-(5-(((2-hydroxyethyl)amino)methyl)thiazole-2-carboxamido)-2,2′-dimethyl-[1,1′-biphenyl]-3-yl)methoxy)benzyl)piperidine-2-carboxylic acid] | ≤ 100
18 | Cc1c(NC(=O)c2ncc(CNCCO)o2)cccc1-c1ccccc1 [Example 3, 5-{[(2-hydroxyethyl)amino]methyl}-N-(2-methylbiphenyl-3-yl)-1,3-oxazole-2-carboxamide] | 100 to 500
19 | Cn1c(CNCCO)cnc1C(=O)Nc1cccc(-c2cccc3c2cnn3C)c1C#N [Example 16, N-[2-cyano-3-(1-methyl-1H-indazol-4-yl)phenyl]-5-{[(2-hydroxyethyl)amino]methyl}-1-methyl-1H-imidazole-2-carboxamide] | 100 to 500
